Experimental data taken from BigSolDB 2.1.

Clc1cc(Cl)c(OCCBr)c(Cl)c1
solubility (mole fraction)
Details	in acetone	in acetonitrile	in ethanol	in isopropanol	in methanol	in n-heptane	in n-propanol
278.1 K	–	–	–	0.00574	0.00356	–	0.0098
278.2 K	0.094	0.0146	0.00698	–	–	0.0388	–
283.1 K	0.105	–	0.00794	–	0.00448	0.047	–
283.2 K	–	0.0176	–	0.00688	–	–	0.0105
288.1 K	0.117	–	–	–	0.00563	0.057	–
288.2 K	–	0.0211	0.0086	0.00825	–	–	0.0113
293.1 K	0.131	0.0253	0.00968	0.0099	–	0.069	–
293.2 K	–	–	–	–	0.0071	–	0.0121
298.1 K	–	–	0.0108	–	–	0.0839	0.013
298.2 K	0.146	0.0304	–	0.0118	0.00892	–	–
303.1 K	–	0.0364	0.012	–	–	–	–
303.2 K	0.163	–	–	0.0142	0.0112	0.102	0.014
308.1 K	–	–	–	–	0.0141	–	0.0151
308.2 K	0.182	0.0437	0.0134	0.017	–	0.123	–
313.1 K	0.203	–	–	0.0204	–	0.15	–
313.2 K	–	0.0525	0.0149	–	0.0177	–	0.0162
318.1 K	–	–	0.0166	0.0245	–	–	0.0174
318.2 K	0.226	0.063	–	–	0.0223	0.182	–
323.1 K	–	–	–	–	0.0281	0.22	–
323.2 K	0.253	0.076	0.0186	0.0294	–	–	0.0187
